Results published in patent US12251382B2, “Substituted amino-pyrimidine compound for use in a method for treatment and prevention of multiple sclerosis” (Merck Patent GmbH, priority 2018, dated 2025).
Entries after “also recorded” stand apart in the source; their conditions may differ.

What was measured:
M1 macrophages = details: in vitro; cited from earlier work
[1] = Clinical trial of relative bioavailability of tablet vs powder-in-capsule incl. food effect in healthy volunteers; assay type: in vivo, human; details: oral administration in proximity in time to food (fed vs fasted)
[2] = Phase I Holter ECG assessment and concentration-QTcF analysis; assay type: in vivo, human; details: for Mean ΔΔQTcF: 100 mg dose group (n=6); for Predicted mean ΔΔQTcF: linear mixed model
Description: Holter ECG recordings of 24 h duration were performed on Day 1 in Parts 1 and 2 of the study using digital 12-lead Holter devices (GI M12R, Manlius, N.Y.) and analyzed in the Quintiles central ECG laboratory. Ten second 12-lead ECGs were extracted in triplicate using Antares ECG extraction software (version 2.15.1.0, AMPS-LLC, New York, N.Y.) for each PK time point (predose and 0.25, 0.5, 1.0, 1.5, 2, 2.5, 3, 4, 5, 6, 8, 12, 16, 24 h postdose) within a −5 to 0 minute window prior to and a 5 minute window after each sampling time point. The quality of extracted ECG snapshots was checked by a Holter Associate/Specialist using the Anatares quality control review interface. The mean QT and RR values from the triplicate ECGs were used to calculate QTcF for each time point.
The dataset consisted of Day 1 ECG and PK data from all subjects in Parts 1 and 2 of the study.
Model derived predicted mean ΔΔQTcF was calculated for the geometric mean Cmax of each dose cohort. Two-sided 90% CIs of the estimate were determined using bootstrapping (1,000 resamples). By-time point analysis of actual values and change from baseline was performed for QTcF. Mean ΔΔQTcF with an associated 90% CI was summarized by time point for each dose cohort.

[3] = Phase I Part 2: plasma pharmacokinetics Day 1 and Day 14 of once daily dosing; assay type: in vivo, human; details: for MRT: human, plasma, oral
Description: To test dose proportionality, PK parameters were analyzed graphically as AUC/dose and Cmax/dose and via a power model (PK parameter=α*dose^β) approach with log-transformed PK parameters as the dependent variable and log-transformed dose as the independent variable.

[4] = test system: human patients suffering from relapsing multiple sclerosis (RMS); experiment: Phase II RMS study: HRQoL SF-36 Physical Component Summary score; assay type: in vivo; details: for Difference in LS means of CFB in PCS score vs placebo: week 24, MMRM
Description: Analysis of Primary Endpoint
Primary and secondary efficacy endpoints were analysed based on the modified intention-to-treat (mITT) analysis set, consisting of all randomized patients with at least one available baseline and one post-baseline MRI assessment. […] For each endpoint, rate ratio (RR; null-hypothesis RR=1.0) adjusted for baseline disease activity was reported together with associated 95% CI and p-value. The T2 lesion endpoint was analysed similarly. Dose-response relationships between evobrutinib treatment dose and primary and key secondary endpoints were assessed for linear and monotonic trend. The analysis of CFB in cube root of volume of T2 lesions at Week 24 was based on a mixed-effect model for repeated measures, with fixed effects for treatment, week of visit, and treatment-by-week interaction, random effect for subject, and adjustment for baseline cube root of lesion volume. CFB in SF-36 score at Week 24 was analysed similarly. Descriptive statistics were used to further describe the study outcomes.

[5] = multiple-dose study Day 1, 25 mg, geometric mean
[6] = multiple-dose study Day 1, 75 mg, geometric mean
[7] = multiple-dose study Day 1, 200 mg, geometric mean
[8] = multiple-dose study Day 14, 25 mg once daily, geometric mean
[9] = multiple-dose study Day 14, 75 mg once daily, geometric mean
[10] = multiple-dose study Day 14, 200 mg once daily, geometric mean

C=CC(=O)N1CCC(CNc2ncnc(N)c2-c2ccc(Oc3ccccc3)cc2)CC1 [Evobrutinib, 1-(4-(((6-amino-5-(4-phenoxyphenyl)pyrimidin-4-yl)amino)methyl)piperidin-1-yl)prop-2-en-1-one]
Effects on macrophages (M1 macrophages): inhibiting the activation, differentiation and polarisation of M1 macrophages and by promoting the M2 macrophage-phenotype | Effect of food on bioavailability [1]: significant increase in the bioavailability | Geometric mean Cmax ([2]; 25 mg dose group, Day 1, Parts 1 and 2): 86.48 ng/mL | Geometric mean Cmax ([2]; 25 mg dose group, Day 1, Parts 1 and 2, listed as evobrutinib): 86.5 ng/mL | Geometric mean Cmax ([2]; 50 mg dose group, Day 1): 233.9 ng/mL | Geometric mean Cmax ([2]; 75 mg dose group, Day 1): 253.9 ng/mL | Mean ΔΔQTcF ([2]; 6 h post-dose): 7.1 ms | Mean ΔΔQTcF ([2]; 8 h post-dose): 5.6 ms | Mean ΔΔQTcF ([2]; 12 h post-dose): 7.2 ms | Geometric mean Cmax ([2]; 100 mg dose group, Day 1): 308.6 ng/mL | Geometric mean Cmax ([2]; 200 mg dose group, Day 1, Parts 1 and 2): 689.2 ng/mL | Geometric mean Cmax ([2]; 350 mg dose group, Day 1): 845.9 ng/mL | Geometric mean Cmax ([2]; 500 mg dose group, Day 1): 1512.3 ng/mL | Geometric mean Cmax ([2]; 500 mg dose group, Day 1, listed as evobrutinib): 1,512 ng/ml | Subjects with change from baseline in QTcF between 30 ms and 60 ms ([2]; 2 of 81 subjects, both in the 200 mg dose group): 2.5% | Change from baseline in QTcF ([2]; all ECGs): ≤ 60 ms | Mean ΔΔQTcF over the range of doses evaluated ([2]; all time points, with the exception of the 100 mg dose group): < 5 ms | Absolute QTcF value ([2]; any dose group, any time point): ≤ 450 ms | Predicted mean ΔΔQTcF ([2]; at geometric mean Cmax of 25 mg dose group): -0.78 ms | Predicted mean ΔΔQTcF ([2]; at geometric mean Cmax of 50 mg dose group): -0.82 ms | Predicted mean ΔΔQTcF ([2]; at geometric mean Cmax of 75 mg dose group): -0.82 ms | Predicted mean ΔΔQTcF ([2]; at geometric mean Cmax of 100 mg dose group): -0.84 ms | Predicted mean ΔΔQTcF ([2]; at geometric mean Cmax of 200 mg dose group): -0.94 ms | Predicted mean ΔΔQTcF ([2]; at geometric mean Cmax of 350 mg dose group): -0.98 ms | Predicted mean ΔΔQTcF ([2]; at geometric mean Cmax of 500 mg dose group): -1.16 ms | Change from baseline in HR, PR and QRS values post-dose ([2]; categorical analysis): no clinically significant change from baseline | Slope of the relationship between placebo-adjusted ΔQTcF and concentration ([2]; linear mixed-effects model, P=0.86): −0.00027 ms/ng per mL | Subjects with treatment-emergent T wave morphological abnormalities ([2]; one in the 50 mg and one in the 100 mg dose group): two | Effect on QTcF / exposure-effect relationship ([2]; single doses up to 500 mg): did not prolong QTcF; also recorded: No evidence of a significant exposure-effect relationship; also recorded: no prolongation of QTcF | Hysteresis between plasma concentration and ΔQTcF ([2]; statistical test based on ΔΔQTcF): no evidence of hysteresis | Dose proportionality of AUC and Cmax ([3]; 25-500 mg single dose, 25-200 mg once daily multiple dose): demonstrated following multiple dosing of 25-200 mg; also recorded: dose-proportional over a 25-500 mg single-dose range and a 25-200 mg once daily multiple-dose range | Time dependency of PK ([3]; 14 days repeated daily dosing): no time dependency | MRT ([3]; 25 mg, multiple-dose study Day 1, 25 mg, geometric mean): 1.66 h | MRT ([3]; 25 mg, multiple-dose study Day 14, 25 mg once daily, geometric mean): 1.81 h | MRT ([3]; 75 mg, multiple-dose study Day 1, 75 mg, geometric mean): 1.67 h | MRT ([3]; 75 mg, multiple-dose study Day 14, 75 mg once daily, geometric mean): 1.79 h | MRT ([3]; 200 mg, multiple-dose study Day 1, 200 mg, geometric mean): 1.72 h | MRT ([3]; 200 mg, multiple-dose study Day 14, 200 mg once daily, geometric mean): 1.92 h | AUC0−∞ [3, 5]: 123 ng·h/mL | Cmax [3, 5]: 99.7 ng/mL | T1/2 [3, 5]: 1.70 h | AUC0−∞ [3, 6]: 325 ng·h/mL | CL/F [3, 6]: 3850 mL/min | Cmax [3, 6]: 254 ng/mL | T1/2 [3, 6]: 1.86 h | AUC0−∞ [3, 7]: 1110 ng·h/mL | Cmax [3, 7]: 797 ng/mL | T1/2 [3, 7]: 2.49 h | AUC0−24h [3, 8]: 126 ng·h/mL | Cmax [3, 8]: 80.4 ng/mL | T1/2 [3, 8]: 1.59 h | AUC0−24h [3, 9]: 345 ng·h/mL | Cmax [3, 9]: 252 ng/mL | T1/2 [3, 9]: 2.29 h | AUC0−24h [3, 10]: 1,210 ng * h/mL | Cmax [3, 10]: 782 ng/mL | T1/2 [3, 10]: 3.62 h | Accumulation with multiple dosing ([3]; once daily, 14 days): no accumulation with multiple dosing; also recorded: without accumulation after multiple dosing | t½ after multiple dosing ([3]; range across 25-200 mg once daily): 1.6 to 3.6 h | Change in SF-36 PCS score from baseline to week 24, Mean ± SD ([4]; 25 mg QD): 0.8 ± 5.93 | Change in SF-36 PCS score from baseline to week 24, Median ([4]; 25 mg QD): 0.3 | Difference in LS means of CFB in PCS score vs placebo ([4]; 25 mg QD): 1.73 | Change in SF-36 PCS score from baseline to week 24, Mean ± SD ([4]; 75 mg BID): 1.1 ± 5.22 | Change in SF-36 PCS score from baseline to week 24, Median ([4]; 75 mg BID): 1.3 | Difference in LS means of CFB in PCS score vs placebo ([4]; 75 mg BID): 1.93 | Change in SF-36 PCS score from baseline to week 24, Mean ± SD ([4]; 75 mg QD): 1.5 ± 7.09 | Change in SF-36 PCS score from baseline to week 24, Median ([4]; 75 mg QD): 0.6 | Difference in LS means of CFB in PCS score vs placebo ([4]; 75 mg QD): 1.95 | Change in SF-36 PCS score from baseline to week 24, Mean ± SD ([4]; 75 mg QD, listed as evobrutinib): 1.5±7.09
